Assay results published in PubChem BioAssay (NCI).
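Five compound concentrations were applied to cells in 96-well plates for 48 hours; endpoints were derived by simple linear interpolation of the resulting dose-response curve. GI50 = concentration required for 50% inhibition of growth. The concentration for full growth arrest is given as TGI.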

What was measured:
Assay in all cases: NCI anticancer screen, dose series, 48 h
[1] = tested on: 786-0 renal
[2] = tested on: T-47D breast
[3] = tested on: OVCAR-5 ovarian
[4] = tested on: SK-MEL-2 melanoma
[5] = tested on: MDA-MB-231 breast
[6] = tested on: SNB-19 CNS
[7] = tested on: NCI-H522 lung
[8] = tested on: SK-OV-3 ovarian
[9] = tested on: COLO 205 colon
[10] = tested on: HT29 colon
[11] = tested on: OVCAR-8 ovarian
[12] = tested on: CAKI-1 renal
[13] = tested on: K-562 leukemia
[14] = tested on: HCT-116 colon
[15] = tested on: UACC-62 melanoma
[16] = tested on: NCI-H226 lung
[17] = tested on: A549 NSCLC
[18] = tested on: U251 CNS
[19] = tested on: HS 578T breast
[20] = tested on: OVCAR-3 ovarian
[21] = tested on: SK-MEL-28 melanoma
[22] = tested on: EKVX NSCLC
[23] = tested on: SK-MEL-5 melanoma
[24] = tested on: IGROV1 ovarian
[25] = tested on: SNB-75 CNS
[26] = tested on: KM12 colon
[27] = tested on: ACHN renal
[28] = tested on: SR leukemia
[29] = tested on: MOLT-4 leukemia
[30] = tested on: NCI-H23 lung
[31] = tested on: SF-295 CNS
[32] = tested on: BT-549 breast
[33] = tested on: UO-31 renal
[34] = tested on: TK-10 renal
[35] = tested on: SW-620 colon
[36] = tested on: RPMI-8226 leukemia
[37] = tested on: SN12C renal
[38] = tested on: MDA-MB-435
[39] = tested on: HCC-2998 colon
[40] = tested on: OVCAR-4 ovarian
[41] = tested on: SF-268 CNS
[42] = tested on: MALME-3M melanoma
[43] = tested on: HL-60(TB) leukemia
[44] = tested on: M14 melanoma
[45] = tested on: HCT-15 colon
[46] = tested on: UACC-257 melanoma
[47] = tested on: MCF7 breast
[48] = tested on: NCI/ADR-RES ovarian
[49] = tested on: DU-145 prostate
[50] = tested on: CCRF-CEM leukemia
[51] = tested on: A498 renal
[52] = tested on: HOP-92 NSCLC
[53] = tested on: NCI-H460 lung
[54] = tested on: RXF 393 renal
[55] = tested on: HOP-62 NSCLC
[56] = tested on: PC-3 prostate
[57] = tested on: SF-539 CNS
[58] = tested on: LOX IMVI melanoma

CS(=O)(=O)Nc1cccc(-c2ccc3c(NC(=O)C4CC4)n[nH]c3c2)c1
GI50 [1]: 12.2 µM
TGI [1]: > 25 µM
GI50 [2]: 1.2 µM
TGI [2]: > 25 µM
GI50 [3]: 12.7 µM
TGI [3]: > 25 µM
GI50 [4]: 1.37 µM
TGI [4]: > 25 µM
GI50 [5]: 6.35 µM
TGI [5]: > 25 µM
GI50 [6]: 3.64 µM
TGI [6]: > 25 µM
GI50 [7]: 0.308 µM
GI50 [8]: 3.92 µM
TGI [8]: 15.7 µM
GI50 [9]: 1.81 µM
TGI [9]: > 12.9 µM
GI50 [10]: 3.88 µM
TGI [10]: > 25 µM
GI50 [11]: 6.26 µM
TGI [11]: > 25 µM
GI50 [12]: > 20.6 µM
TGI [12]: > 25 µM
GI50 [13]: 0.776 µM
TGI [13]: > 25 µM
GI50 [14]: 1.51 µM
TGI [14]: > 25 µM
GI50 [15]: 1.03 µM
TGI [15]: > 25 µM
GI50 [16]: 2.59 µM
TGI [16]: > 25 µM
GI50 [17]: 10.9 µM
TGI [17]: > 25 µM
GI50 [18]: 1.49 µM
TGI [18]: > 25 µM
GI50 [19]: 2.22 µM
TGI [19]: > 25 µM
GI50 [20]: 0.641 µM
TGI [20]: 1.96 µM
GI50 [21]: 3.4 µM
TGI [21]: > 25 µM
GI50 [22]: > 24.1 µM
TGI [22]: > 25 µM
GI50 [23]: 0.641 µM
TGI [23]: > 13 µM
GI50 [24]: 16.3 µM
TGI [24]: > 25 µM
GI50 [25]: 4.6 µM
TGI [25]: > 25 µM
GI50 [26]: 1.39 µM
TGI [26]: > 25 µM
GI50 [27]: 12.7 µM
TGI [27]: > 25 µM
GI50 [28]: 0.355 µM
TGI [28]: > 25 µM
GI50 [29]: 6.27 µM
TGI [29]: > 25 µM
GI50 [30]: 10.2 µM
TGI [30]: > 25 µM
GI50 [31]: 5.65 µM
TGI [31]: > 25 µM
GI50 [32]: 5.86 µM
TGI [32]: > 25 µM
GI50 [33]: 24.8 µM
TGI [33]: > 25 µM
GI50 [34]: 24.6 µM
TGI [34]: > 25 µM
GI50 [35]: 2.14 µM
TGI [35]: > 25 µM
GI50 [36]: 10.8 µM
TGI [36]: > 25 µM
GI50 [37]: 5.25 µM
TGI [37]: > 25 µM
GI50 [38]: 0.165 µM
TGI [38]: 0.944 µM
GI50 [39]: 4.08 µM
TGI [39]: > 25 µM
GI50 [40]: 2.68 µM
TGI [40]: > 25 µM
GI50 [41]: 2.78 µM
TGI [41]: > 25 µM
GI50 [42]: > 4.93 µM
TGI [42]: > 25 µM
GI50 [43]: 1.73 µM
TGI [43]: 10.8 µM
GI50 [44]: 2.33 µM
TGI [44]: > 25 µM
GI50 [45]: 7.29 µM
TGI [45]: > 25 µM
GI50 [46]: > 25 µM
TGI [46]: > 25 µM
GI50 [47]: 0.794 µM
TGI [47]: > 9.93 µM
GI50 [48]: 6.45 µM
TGI [48]: > 25 µM
GI50 [49]: 6.82 µM
TGI [49]: > 25 µM
GI50 [50]: 1.33 µM
TGI [50]: > 25 µM
GI50 [51]: 4.32 µM
TGI [51]: > 25 µM
TGI [52]: > 25 µM
GI50 [53]: 7.76 µM
TGI [53]: > 25 µM
GI50 [54]: 1.28 µM
TGI [54]: > 25 µM
GI50 [55]: 1.16 µM
TGI [55]: > 21.5 µM
GI50 [56]: 3.24 µM
TGI [56]: > 25 µM
GI50 [57]: 1.5 µM
TGI [57]: > 25 µM
GI50 [58]: 1.82 µM
TGI [58]: > 25 µM

COc1cc(Nc2ncc3c(C)nc(-c4cccc(Oc5ccccc5)c4)n3n2)cc(OC)c1OC
GI50 [1]: 6.2 µM
TGI [1]: > 25 µM
GI50 [2]: 4.51 µM
TGI [2]: 17.2 µM
GI50 [3]: 11.6 µM
TGI [3]: > 25 µM
GI50 [4]: 2.58 µM
TGI [4]: 9.71 µM
GI50 [5]: 4.99 µM
TGI [5]: > 24.2 µM
GI50 [6]: 12.1 µM
TGI [6]: > 25 µM
GI50 [7]: 4.94 µM
TGI [7]: > 17.9 µM
GI50 [8]: 1.74 µM
TGI [8]: > 25 µM
GI50 [9]: 7.68 µM
TGI [9]: > 25 µM
GI50 [10]: 5.71 µM
TGI [10]: 16.3 µM
GI50 [11]: 5.15 µM
TGI [11]: > 25 µM
GI50 [12]: 1.24 µM
TGI [12]: > 25 µM
GI50 [13]: 10 µM
TGI [13]: > 25 µM
GI50 [14]: 3.03 µM
TGI [14]: > 25 µM
GI50 [15]: 3.3 µM
TGI [15]: > 13.8 µM
GI50 [16]: 5.93 µM
TGI [16]: > 25 µM
GI50 [17]: 6.32 µM
TGI [17]: > 25 µM
GI50 [18]: 6.51 µM
TGI [18]: > 25 µM
GI50 [19]: 7.51 µM
TGI [19]: > 25 µM
GI50 [20]: 4.64 µM
TGI [20]: 11.2 µM
GI50 [21]: 7.63 µM
TGI [21]: > 25 µM
GI50 [22]: 11.2 µM
TGI [22]: > 25 µM
GI50 [23]: 3.28 µM
TGI [23]: 6.74 µM
GI50 [24]: 2.32 µM
TGI [24]: > 25 µM
GI50 [25]: 5.14 µM
TGI [25]: > 25 µM
GI50 [26]: 5.95 µM
TGI [26]: > 25 µM
GI50 [27]: 1.33 µM
TGI [27]: 17.9 µM
GI50 [28]: 5.99 µM
TGI [28]: > 21.4 µM
GI50 [29]: 7.46 µM
TGI [29]: > 21.3 µM
GI50 [30]: 6.68 µM
TGI [30]: > 25 µM
GI50 [31]: 7.2 µM
TGI [31]: > 25 µM
GI50 [32]: 6.86 µM
TGI [32]: > 25 µM
GI50 [33]: 1.39 µM
TGI [33]: 18.2 µM
GI50 [34]: 3.52 µM
TGI [34]: > 20.6 µM
GI50 [35]: 9.61 µM
TGI [35]: > 25 µM
GI50 [36]: 6.08 µM
TGI [36]: > 25 µM
GI50 [37]: 5.32 µM
TGI [37]: > 21.6 µM
GI50 [38]: 6.26 µM
TGI [38]: > 25 µM
GI50 [39]: 5.15 µM
TGI [39]: > 25 µM
GI50 [40]: 4.78 µM
TGI [40]: > 25 µM
GI50 [41]: 6.6 µM
TGI [41]: > 22.7 µM
GI50 [42]: 5.32 µM
TGI [42]: 18.7 µM
GI50 [43]: 6.01 µM
TGI [43]: 14.1 µM
GI50 [44]: 3.54 µM
TGI [44]: 19 µM
GI50 [45]: 2.5 µM
TGI [45]: > 25 µM
GI50 [46]: 10.4 µM
TGI [46]: > 25 µM
GI50 [47]: 7.18 µM
TGI [47]: > 24.1 µM
GI50 [48]: 6.36 µM
TGI [48]: > 25 µM
GI50 [49]: 3.05 µM
TGI [49]: > 25 µM
GI50 [50]: 3.9 µM
TGI [50]: > 25 µM
GI50 [51]: 2.03 µM
TGI [51]: > 22.9 µM
GI50 [52]: 6.29 µM
TGI [52]: > 24.1 µM
GI50 [53]: 3.21 µM
TGI [53]: > 25 µM
GI50 [54]: 2.28 µM
TGI [54]: > 25 µM
GI50 [55]: 10.6 µM
TGI [55]: > 25 µM
GI50 [56]: 5.1 µM
TGI [56]: 24.6 µM
GI50 [57]: 7.07 µM
TGI [57]: > 25 µM
GI50 [58]: 3.57 µM
TGI [58]: > 15.5 µM
